As a reminder, the Ki is the equilibrium dissociation constant of an inhibitor or competing ligand from its target.

The values that follow come from US8461328B2, “Tricyclic heterocyclic compounds, compositions and methods of use thereof” (Genentech, Inc., priority 2010, dated 2013).

What all share (assay type): biochemical
One assay has as its target T1, JAK2 (Homo sapiens, UniProt O60674).
T1 construct: made in house; host or cells: SF9 insect cells (baculovirus)
The assay can be described thus: JAK2 inhibition (Table 4). Particulars: read-out: JAK2 Ki.

The target in a further assay is T2, TYK2 (Homo sapiens, UniProt P29597).
T2 construct: made in house; host or cells: SF9 insect cells (baculovirus)
T2 sequence (P29597 873-1187): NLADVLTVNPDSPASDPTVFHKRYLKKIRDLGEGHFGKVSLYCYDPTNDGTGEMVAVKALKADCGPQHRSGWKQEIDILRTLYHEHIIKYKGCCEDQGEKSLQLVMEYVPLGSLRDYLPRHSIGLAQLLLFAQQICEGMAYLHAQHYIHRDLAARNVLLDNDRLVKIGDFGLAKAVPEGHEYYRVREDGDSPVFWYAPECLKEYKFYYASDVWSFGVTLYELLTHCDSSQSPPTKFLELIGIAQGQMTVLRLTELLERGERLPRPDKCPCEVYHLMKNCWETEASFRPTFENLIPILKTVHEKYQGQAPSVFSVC
In words: TYK2 inhibition (Table 4).

The next assay has as its target T3, JAK1 (Homo sapiens, UniProt P23458).
T3 construct: made in house; host or cells: SF9 insect cells (baculovirus)
In words: JAK1 inhibition (Table 4).

For a further assay, the target named is T4, JAK3 (Homo sapiens, UniProt P52333).
T4 construct: made in house; host or cells: SF9 insect cells (baculovirus)
T4 sequence (P52333 783-1124): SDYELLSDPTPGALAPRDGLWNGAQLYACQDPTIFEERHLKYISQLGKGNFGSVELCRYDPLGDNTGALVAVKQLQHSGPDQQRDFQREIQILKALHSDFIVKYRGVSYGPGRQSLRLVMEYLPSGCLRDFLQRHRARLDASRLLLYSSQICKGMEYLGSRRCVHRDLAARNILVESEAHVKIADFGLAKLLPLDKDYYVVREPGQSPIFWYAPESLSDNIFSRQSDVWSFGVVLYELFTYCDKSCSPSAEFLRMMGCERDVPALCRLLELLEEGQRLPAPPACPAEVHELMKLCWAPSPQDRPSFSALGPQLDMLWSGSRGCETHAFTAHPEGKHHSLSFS
In words: JAK3 inhibition (Table 4).

Where a name gives a salt, the structure may show the parent alone. Read-outs that look alike come from different tables or passages of the source.

T1 sequence (O60674 812-1132): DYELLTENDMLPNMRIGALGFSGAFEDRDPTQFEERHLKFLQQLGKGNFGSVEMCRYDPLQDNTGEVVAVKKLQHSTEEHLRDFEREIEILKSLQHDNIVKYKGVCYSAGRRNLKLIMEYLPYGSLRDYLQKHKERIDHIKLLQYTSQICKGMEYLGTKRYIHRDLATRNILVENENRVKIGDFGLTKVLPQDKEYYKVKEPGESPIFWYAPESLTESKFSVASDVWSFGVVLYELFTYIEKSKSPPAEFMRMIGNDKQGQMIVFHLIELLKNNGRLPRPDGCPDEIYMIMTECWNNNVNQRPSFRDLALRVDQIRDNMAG
T3 sequence (P23458 852-1154): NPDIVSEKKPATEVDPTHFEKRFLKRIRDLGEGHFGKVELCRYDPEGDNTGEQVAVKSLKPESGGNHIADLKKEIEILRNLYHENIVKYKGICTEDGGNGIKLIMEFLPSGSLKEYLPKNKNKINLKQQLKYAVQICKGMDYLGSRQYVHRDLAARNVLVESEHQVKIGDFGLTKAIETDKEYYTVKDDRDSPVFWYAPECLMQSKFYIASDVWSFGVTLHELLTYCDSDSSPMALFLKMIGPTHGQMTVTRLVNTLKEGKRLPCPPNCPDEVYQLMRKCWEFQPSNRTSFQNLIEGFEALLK

Consider “3-[6-benzenesulfonyl-2-((R)-1-hydroxy-ethyl]-6H-1,3,5,6-tetraaza-as-indecen-1-yl}-cyclohexanecarbonitrile [Example 742]”, for which the inhibitory constant (Ki) worked out at 0.0662 µM on JAK2, 0.0111 µM at TYK2, 0.00951 µM at JAK1 (read-out: JAK1 Ki) and 0.0366 µM on JAK3 (read-out: JAK3 Ki).

Take `Cc1nc2cnc3[nH]ccc3c2n1C1CCCCC1C` (mixture of isomers) [Example 516, 2-Methyl-1-(2-methyl-cyclohexyl)-1,6-dihydro-1,3,5,6-tetraaza-as-indacene]: the Ki on JAK2 worked out at 0.00278 µM; at TYK2 it was 0.00758 µM; at JAK1 (read-out: JAK1 Ki), 0.00217 µM; at JAK3 (read-out: JAK3 Ki), 0.00535 µM.

In the case of `N#CCC1CCC(n2c(CO)nc3cnc4[nH]ccc4c32)CC1` (mixture of isomers) [Example 643, [4-(2-Hydroxymethyl-6H-1,2,3,5,6-tetraaza-as-indacen-1-yl)-cyclohexyl]-acetonitrile], the Ki on JAK2 came to 0.00096 µM; on TYK2 it was 0.00051 µM; at JAK1 (JAK1 Ki), 0.00027 µM; at JAK3 (JAK3 Ki), 0.00526 µM.

As for `C[C@@H](O)c1nc2cnc3[nH]ccc3c2n1C1CCC(CS(C)(=O)=O)CC1` (mixture of isomers) [Example 649, (R)-1-[1-(4-Methanesulfonylmethyl-cyclohexyl)-1,6-dihydro-1,2,3,5,6-tetraaza-as-indacen-2-yl]-ethanol], the inhibitory constant (Ki) at JAK2 came out at 0.0386 µM; at TYK2, 0.0384 µM; at JAK1 (read-out: JAK1 Ki) it was 0.00482 µM; at JAK3 (read-out: JAK3 Ki) it was 0.0686 µM.

As for `O=C1CC2CCC(n3cnc4cnc5[nH]ccc5c43)CC2N1` (racemic) [Example 111, 6-(6H-1,2,3,5,6-Tetraaza-as-indacen-1-yl)-octahydro-indol-2-one], the inhibition constant (Ki) at JAK2 is 0.0104 µM; at TYK2 it was 0.021 µM; at JAK1 (read-out: JAK1 Ki), 0.00487 µM; at JAK3 (read-out: JAK3 Ki) it was 0.0265 µM.

In the case of `CCC(C)Cc1nc2cnc3[nH]ccc3c2n1C1CCN(CCC#N)CC1` (racemic) [Example 122, 3-{4-[2-(2-Methyl-butyl)-6H-1,2,3,5,6-tetraaza-as-indacen-1-yl]-piperidin-1-yl}-propionitrile], the inhibition constant (Ki) came to 0.281 µM at JAK2, 1.05 µM on TYK2, 0.0623 µM on JAK1 (read-out: JAK1 Ki) and 0.0834 µM at JAK3 (read-out: JAK3 Ki).

`COC(=O)CC(c1cccnc1)N1CCC(n2cnc3cnc4[nH]ccc4c32)CC1` (racemic) [Example 126, 3-pyridin-3-yl-3-[4-(6H-1,2,3,5,6-tetraaza-as-indacen-1-yl)-piperidin-1-yl]-propionic acid methyl ester]: the Ki on JAK2 amounted to 0.0152 µM; on TYK2, 0.193 µM; at JAK1 (read-out: JAK1 Ki), 0.0155 µM; on JAK3 (read-out: JAK3 Ki), 0.418 µM.

In the case of `CC1CC(n2cnc3cnc4[nH]ccc4c32)CCN1Cc1ccccc1` (racemic) [Example 127, 1-(1-Benzyl-2-methyl-piperidin-4-yl)-1,6-dihydro-1,2,3,5,6-tetraaza-as-indacene], the inhibition constant (Ki) at JAK2 was 0.00182 µM; at TYK2 it was 0.0261 µM; at JAK1 (read-out: JAK1 Ki), 0.0026 µM; at JAK3 (read-out: JAK3 Ki), 0.00846 µM.

With `CC1CC(n2cnc3cnc4[nH]ccc4c32)CCN1Cc1ccccc1` (racemic) [Example 128, 1-(1-Benzyl-2-methyl-piperidin-4-yl)-1,6-dihydro-1,2,3,5,6-tetraaza-as-indacene], the Ki came to 0.00211 µM at JAK2, 0.0826 µM at TYK2, 0.00209 µM at JAK1 (read-out: JAK1 Ki) and 0.0608 µM at JAK3 (read-out: JAK3 Ki).

`O=C1CC(n2cnc3cnc4[nH]ccc4c32)CCN1Cc1ccccc1` (racemic) [Example 129, 1-Benzyl-4-(6H-1,2,3,5,6-tetraaza-as-indacen-1-yl)-piperidin-2-one]: the inhibition constant Ki on JAK2 was 0.0572 µM; on TYK2, 0.312 µM; on JAK1 (read-out: JAK1 Ki), 0.0438 µM; on JAK3 (read-out: JAK3 Ki) it was 0.535 µM.

On to `O=C1CCC(n2cnc3cnc4[nH]ccc4c32)CN1` (racemic) [Example 130, 5-(6H-1,2,3,5,6-Tetraaza-as-indacen-1-yl)-piperidin-2-one], for which the Ki at JAK2 was determined as 0.389 µM; at TYK2, 0.622 µM; on JAK1 (read-out: JAK1 Ki) it was 0.126 µM; on JAK3 (read-out: JAK3 Ki) it was 2.28 µM.

Turning to `O=C1CC(n2cnc3cnc4[nH]ccc4c32)CCN1` (racemic) [Example 133, 4-(6H-1,2,3,5,6-Tetraaza-as-indacen-1-yl)-piperidin-2-one], the inhibitory constant (Ki) on JAK2 amounted to 0.15 µM; on TYK2 it was 0.798 µM; on JAK1 (read-out: JAK1 Ki), 0.0542 µM; at JAK3 (read-out: JAK3 Ki), 0.297 µM.

In the case of `CC1CN(Cc2ccccc2)CCC1n1cnc2cnc3[nH]ccc3c21` (racemic) [Example 149, Racemic cis 1-(1-Benzyl-3-methyl-piperidin-4-yl)-1,6-dihydro-1,2,3,5,6-tetraaza-as-indacene], the Ki at JAK2 amounted to 0.00161 µM; on TYK2, 0.0185 µM; at JAK1 (read-out: JAK1 Ki), 0.00098 µM; on JAK3 (read-out: JAK3 Ki), 0.0203 µM.

For the compound `CC1CN(Cc2ccccc2)CCC1n1cnc2cnc3[nH]ccc3c21` (racemic) [Example 150, Racemic trans 1-(1-Benzyl-3-methyl-piperidin-4-yl)-1,6-dihydro-1,2,3,5,6-tetraaza-as-indacene dihydrochloride], the Ki at JAK2 stood at 0.0119 µM; at TYK2, 0.292 µM; at JAK1 (read-out: JAK1 Ki), 0.00417 µM; at JAK3 (read-out: JAK3 Ki), 0.0177 µM.

As to `Cc1nc2cnc3[nH]ccc3c2n1C1CCN(Cc2ccccc2)CC1C` (racemic) [Example 151, Racemic 1-(1-benzyl-3-methyl-piperidin-4-yl)-2-methyl-1,6-dihydro-1,2,3,5,6-tetraaza-as-indacene dihydrochloride salt], the Ki at JAK2 is 0.00227 µM; on TYK2 it was 0.0312 µM; at JAK1 (read-out: JAK1 Ki), 0.00178 µM; on JAK3 (read-out: JAK3 Ki) it was 0.0135 µM.

Consider `CC(O)c1nc2cnc3[nH]ccc3c2n1C1CCN(Cc2cccc(C#N)c2)CC1` (racemic) [Example 156, Racemic 3-{4-[2-(1-Hydroxy-ethyl)-6H-1,2,3,5,6-tetraaza-as-indacen-1-yl]-piperidin-1-ylmethyl}-benzonitrile], for which the Ki at JAK2 stood at 0.0163 µM; at TYK2, 0.209 µM; at JAK1 (read-out: JAK1 Ki), 0.00213 µM; at JAK3 (read-out: JAK3 Ki), 0.0846 µM.

In the case of `CC(O)c1nc2cnc3[nH]ccc3c2n1C1CCN(Cc2ccccc2)CC1` (racemic) [Example 157, Racemic 1-[1-(1-Benzyl-piperidin-4-yl)-1,6-dihydro-1,2,3,5,6-tetraaza-as-indacen-2-yl]-ethanol], the Ki at JAK2 was determined as 0.0251 µM; at TYK2, 0.207 µM; on JAK1 (read-out: JAK1 Ki) it was 0.00359 µM; at JAK3 (read-out: JAK3 Ki), 0.034 µM.

With `CC(O)c1nc2cnc3[nH]ccc3c2n1C1CCN(CCC#N)CC1` (racemic) [Example 158, Racemic 3-{4-[2-(1-Hydroxy-ethyl)-6H-1,2,3,5,6-tetraaza-as-indacen-1-yl]-piperidin-1-yl}-propionitrile], the inhibition constant Ki at JAK2 was 0.0282 µM; on TYK2, 0.0329 µM; on JAK1 (read-out: JAK1 Ki), 0.00376 µM; at JAK3 (read-out: JAK3 Ki), 0.0182 µM.

Turning to `CC(C)NC(=O)C(C)c1nc2cnc3[nH]ccc3c2n1C1CCN(CCC#N)CC1` (racemic) [Example 172, Racemic 2-{1-[1-(2-Cyano-ethyl)-piperidin-4-yl]-1,6-dihydro-1,2,3,5,6-tetraaza-as-indacene-2-yl}-N-isopropyl-propionamide], the inhibition constant Ki on JAK2 was found to be 0.251 µM; on TYK2, 2.77 µM; on JAK1 (read-out: JAK1 Ki) it was 0.141 µM; on JAK3 (read-out: JAK3 Ki), 0.0226 µM.

As for `CC1CC(n2cnc3cnc4[nH]ccc4c32)CCN1` (racemic) [Example 229, 1-(2-Methyl-piperidin-4-yl)-1,6-dihydro-1,3,5,6-tetraaza-as-indacene], the Ki on JAK2 is 0.142 µM; at TYK2, 0.33 µM; at JAK1 (read-out: JAK1 Ki), 0.0487 µM; on JAK3 (read-out: JAK3 Ki), 0.417 µM.

As to `CC1CC(n2cnc3cnc4[nH]ccc4c32)CCN1` (racemic) [Example 230, 1-(2-Methyl-piperidin-4-yl)-1,6-dihydro-1,3,5,6-tetraaza-as-indacene], the Ki came out at 0.123 µM at JAK2, 0.435 µM on TYK2, 0.0478 µM at JAK1 (read-out: JAK1 Ki) and 0.424 µM on JAK3 (read-out: JAK3 Ki).

Turning to `OCC(O)c1nc2cnc3[nH]ccc3c2n1C1CCCCC1` (racemic) [Example 853, 1-(1-Cyclohexyl-1,6-dihydro-1,3,5,6-tetraaza-as-indacen-2-yl)-ethane-1,2-diol], the Ki on TYK2 amounted to 0.00529 µM; on JAK1 (read-out: JAK1 Ki), 0.00198 µM; on JAK3 (read-out: JAK3 Ki), 0.0204 µM.

As for `CN(C(=O)Cc1nc2cnc3[nH]ccc3c2n1C1CCNCC1)C1CCCC1` [Example 257, N-Cyclopentyl-N-methyl-2-(1-piperidin-4-yl-1,6-dihydro-1,3,5,6-tetraaza-as-indacen-2-yl)-acetamide], the figures for the Ki on TYK2, on JAK1 (read-out: JAK1 Ki) and at JAK3 (read-out: JAK3 Ki) were 3.43 µM, 0.2 µM and 0.397 µM, respectively.

As to `OC[C@@H](O)c1nc2cnc3[nH]ccc3c2n1C1CCCCC1` [Example 688, (S)-1-(1-Cyclohexyl-1,6-dihydro-1,2,3,5,6-tetraaza-as-indacen-2-yl)-ethane-1,2-diol], the Ki on TYK2 was found to be 0.0047 µM; at JAK1 (read-out: JAK1 Ki), 0.00177 µM; at JAK3 (read-out: JAK3 Ki), 0.0161 µM.

As for `OC[C@H](O)c1nc2cnc3[nH]ccc3c2n1C1CCCCC1` [Example 858, (R)-1-(1-Cyclohexyl-1,6-dihydro-1,3,5,6-tetraaza-as-indacen-2-yl)-ethane-1,2-diol], the Ki came to 0.0198 µM at TYK2, 0.00777 µM on JAK1 (read-out: JAK1 Ki) and 0.0524 µM on JAK3 (read-out: JAK3 Ki).
